From publication PMC11874779 (Drug Design, Development and Therapy, 2025)

Tested on: Baf3-EGFR^19del/T790M/C797S
Experiment: Xenograft tumor model
Assay type: in vivo, BALB/c nude mice
Conditions: 100 mg/kg ig daily, 9 days, from tumor weight

C=CC(=O)Nc1cc(Nc2nccc(-c3cn(C)c4ccccc34)n2)c(OC)cc1N(C)CCN(C)C [Osimertinib]
Tumor Growth Inhibition value (TGI): 13.5%
